The record followed here is ChEMBL document CHEMBL1201862, “PubChem BioAssay data set” (2004).

The target in assay [1] is T1, Carboxy-terminal domain RNA polymerase II polypeptide A small phosphatase 1 (Homo sapiens, UniProt Q9GZU7).
T1 sequence (Q9GZU7 whole entry): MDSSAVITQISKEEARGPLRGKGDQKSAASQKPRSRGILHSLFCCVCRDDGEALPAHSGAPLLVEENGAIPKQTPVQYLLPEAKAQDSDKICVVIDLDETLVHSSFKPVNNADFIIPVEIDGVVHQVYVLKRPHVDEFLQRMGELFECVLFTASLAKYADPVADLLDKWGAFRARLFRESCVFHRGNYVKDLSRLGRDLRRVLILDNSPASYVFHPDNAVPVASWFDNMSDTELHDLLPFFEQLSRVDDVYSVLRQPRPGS
Kind of assay: inhibitors of CTDSP1, concentration-response testing, biochemical assay, absorbance-based, actives from ultra-high-throughput screening (AID 540297). Type of assay: functional.

Assay [2] is described as follows: inhibitors of SNCA 5'UTR-driven reporter translation, confirmation, H4 neuroglioma cells, luminescence (AID 1988). Type of assay: functional, cell-based.
Assay [3] is described as follows: Luminescence Cell-Based Dose Response HTS to Identify Inhibitors of 5'UTR Stem-Loop Driven Prion Protein mRNA Translation in H4 Neuroglioblastoma Cells. [Related pubchem assays: 1827 (Project Summary), 1813 (Primary HTS)]. The format is functional.
Assay [4] deals with INS1. Kind of assay: beta cell apoptosis inhibitors, cytokine rescue, dose response, luminescence, retest (AID 449756).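 Also: cell death triggered by IL-1 beta plus TNF-alpha plus IFN-gamma mixture; protective hits raise ATP signal compared with cytokine alone wells.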 Type of assay: functional, cell-based. The following applies: Rattus norvegicus.
A short description of assay [5]: microbe, parasite or virus in culture. Type of assay: functional. The note with it: Mycobacterium tuberculosis.
For assay [6], the target named is Paired box protein Pax-8 (Homo sapiens, UniProt Q06710). Briefly: inhibitors of PAX8-driven TPO luciferase reporter, dose response, RMG-I cells, cherry-pick (AID 687027).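 Also: luciferase reporter driven by Pax8 target thyroperoxidase promoter measured by SteadyGlo luminescence.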 The format is functional, cell-based.
Assay [7] in a line: inhibitors of firefly luciferase expression or activity, dose response, H4 neuroglioma cells, luminescence (AID 1990). The format is functional, cell-based.
Assay [8] is described as follows: cytotoxicity in HEK-293T cells, dose response, cytotoxicity control for TCR NF-kB inhibitor project, luminescence, T-cell screen hits (AID 489026).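 Also: cells exposed to compound about 14 hours before the viability readout.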 The format is functional, cell-based.
Assay [9] addresses Large T antigen (Simian virus 40, UniProt P03070). Type of assay: functional, Betapolyomavirus macacae.
The target in assay [10] is Glucose-6-phosphate 1-dehydrogenase (Homo sapiens, UniProt P11413). Kind of assay: human G6PD enzyme inhibitors, dose response, selectivity assay for P. falciparum G6PD inhibitor project, biochemical, fluorescence (AID 504792). The format is functional.
The target in assay [11] is T2, Heat shock factor protein 1 (Mus musculus, UniProt P38532).
T2 sequence (P38532 whole entry): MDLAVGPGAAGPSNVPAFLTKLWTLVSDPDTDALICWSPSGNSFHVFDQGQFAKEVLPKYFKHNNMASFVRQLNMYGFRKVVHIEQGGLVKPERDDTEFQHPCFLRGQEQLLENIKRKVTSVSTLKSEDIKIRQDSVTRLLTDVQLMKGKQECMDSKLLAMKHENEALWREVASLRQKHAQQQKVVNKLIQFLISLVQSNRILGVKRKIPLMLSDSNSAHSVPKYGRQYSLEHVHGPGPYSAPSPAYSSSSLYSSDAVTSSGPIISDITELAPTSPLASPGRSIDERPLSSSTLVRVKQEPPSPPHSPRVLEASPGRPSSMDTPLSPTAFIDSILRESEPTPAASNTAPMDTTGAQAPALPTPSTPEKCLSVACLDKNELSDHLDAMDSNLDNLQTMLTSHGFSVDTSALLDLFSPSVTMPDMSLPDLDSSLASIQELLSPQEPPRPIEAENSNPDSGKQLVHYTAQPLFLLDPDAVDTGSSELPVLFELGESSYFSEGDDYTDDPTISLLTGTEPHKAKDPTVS
Briefly: HSF1 potentiators in luciferase reporter cells, confirmation, cell-based, NIH3T3, luminescence, dose retest (AID 435004).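 Also: stress induced by proteasome inhibitor MG132 added 30 min after compound; luciferase reporter driven by HSF1 response element in NIH3T3 cells; actives raise luminescence as potentiators of the MG132 stress response.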 The format is functional.

Active and inactive are the calls of the source.

Chain of Large T antigen (P03070 whole entry): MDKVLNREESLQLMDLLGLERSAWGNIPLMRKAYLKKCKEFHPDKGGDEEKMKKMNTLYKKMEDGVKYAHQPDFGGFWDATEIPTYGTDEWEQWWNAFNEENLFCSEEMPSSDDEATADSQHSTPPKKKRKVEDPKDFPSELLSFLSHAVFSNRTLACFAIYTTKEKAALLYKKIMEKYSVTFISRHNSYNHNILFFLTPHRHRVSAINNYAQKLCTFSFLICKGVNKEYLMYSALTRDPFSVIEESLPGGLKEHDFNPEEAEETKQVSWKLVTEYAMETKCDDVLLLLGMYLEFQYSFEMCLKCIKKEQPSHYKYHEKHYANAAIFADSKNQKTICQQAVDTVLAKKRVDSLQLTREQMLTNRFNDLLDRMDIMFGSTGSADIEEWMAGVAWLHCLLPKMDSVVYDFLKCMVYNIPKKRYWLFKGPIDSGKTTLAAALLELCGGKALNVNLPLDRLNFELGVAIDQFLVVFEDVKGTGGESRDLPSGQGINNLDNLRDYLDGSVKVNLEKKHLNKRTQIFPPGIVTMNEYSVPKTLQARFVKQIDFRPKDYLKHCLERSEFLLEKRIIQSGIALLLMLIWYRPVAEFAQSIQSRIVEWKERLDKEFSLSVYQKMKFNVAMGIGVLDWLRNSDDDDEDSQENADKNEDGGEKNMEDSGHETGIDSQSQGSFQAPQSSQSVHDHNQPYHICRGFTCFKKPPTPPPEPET
Chain of Glucose-6-phosphate 1-dehydrogenase (P11413 whole entry): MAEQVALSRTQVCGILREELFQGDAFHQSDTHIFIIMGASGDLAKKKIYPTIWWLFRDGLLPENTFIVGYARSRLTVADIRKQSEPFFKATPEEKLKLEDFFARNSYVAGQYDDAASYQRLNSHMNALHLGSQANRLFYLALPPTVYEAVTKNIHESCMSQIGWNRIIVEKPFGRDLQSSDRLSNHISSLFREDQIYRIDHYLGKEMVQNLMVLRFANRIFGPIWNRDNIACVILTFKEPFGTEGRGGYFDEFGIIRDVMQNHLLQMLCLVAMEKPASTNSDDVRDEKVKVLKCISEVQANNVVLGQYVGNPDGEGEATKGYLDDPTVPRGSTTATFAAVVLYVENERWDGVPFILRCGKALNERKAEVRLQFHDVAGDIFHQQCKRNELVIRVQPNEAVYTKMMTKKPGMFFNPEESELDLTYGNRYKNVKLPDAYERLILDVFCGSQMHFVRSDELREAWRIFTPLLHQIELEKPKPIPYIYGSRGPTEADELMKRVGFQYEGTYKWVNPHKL
Chain of Paired box protein Pax-8 (Q06710 whole entry): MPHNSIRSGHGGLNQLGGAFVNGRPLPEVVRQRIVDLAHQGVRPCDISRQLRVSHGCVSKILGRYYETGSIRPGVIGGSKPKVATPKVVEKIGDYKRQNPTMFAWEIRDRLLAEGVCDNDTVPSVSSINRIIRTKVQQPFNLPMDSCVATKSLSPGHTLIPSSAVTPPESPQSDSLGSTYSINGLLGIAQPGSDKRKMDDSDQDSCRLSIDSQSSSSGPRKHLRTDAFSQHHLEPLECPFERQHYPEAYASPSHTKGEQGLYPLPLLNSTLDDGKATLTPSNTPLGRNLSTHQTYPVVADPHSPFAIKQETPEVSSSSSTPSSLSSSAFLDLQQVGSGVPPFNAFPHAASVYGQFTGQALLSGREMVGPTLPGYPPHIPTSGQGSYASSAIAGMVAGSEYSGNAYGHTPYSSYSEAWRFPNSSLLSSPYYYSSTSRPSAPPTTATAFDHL

For orientation: IC50 means the point on the concentration scale where inhibition reaches its midpoint. As for `O=C(CCN1C(=O)S/C(=C\c2ccc(Cl)cc2)C1=O)Nc1ccc(C(=O)O)cc1`, in [1], the IC50 was 6.17 µM (active).

One may read the EC50 as the concentration giving half of the maximal effect. A word on the AC50: it is the concentration giving half of the maximal activity seen. As for `CCCCCCCCn1c2c(c(=N)c3c1CCC3)CCCC2`, the EC50 in [2] is 7.18 µM (active); in assay [3] it was 32.4 µM (active); in assay [7], 4.15 µM (active). Further, the AC50 is < 0.195 µM (active) in [4] and 2.36 µM (active) in assay [6]. Also, in assay [5], the CC50 was 32.7 µM (active). The IC50 in assay [8] is 73.8 µM (inactive).

For the compound `CCc1ccc(OCC(=O)NNC(=O)c2ccc(NC(=O)C3CC3)cc2)cc1`, in assay [1], the IC50 was 10.5 µM (active).

Take `O=C(CCN1C(=O)/C(=C/c2ccc(Cl)cc2)SC1=S)Nc1ccc(C(=O)O)cc1`: in assay [1], the IC50 was 2.64 µM (active).

On to `C[C@]12CC[C@@H]3c4cc(O)c(O)cc4CC[C@H]3[C@@H]1CC[C@@H]2O`, for which the IC50 in assay [9] is > 100 µM (active); in [10] it was 72.5 µM (inactive); in [8], > 80 µM (inactive). The EC50 in assay [11] was 4.07 µM (active).
